Reference: ChEMBL document CHEMBL1131646, “Synthesis of some hydroxynaphthazarins and their cardioprotective effects under ischemia-reperfusion in vivo” (Bioorg Med Chem Lett, 1998)

What was measured:
[1] = Lethal dose to produce acute toxicity was evaluated in white crossbred mice weighing 20-25 g; conditions: mouse, in vivo
Oryctolagus cuniculus = species: Oryctolagus cuniculus; test: Myocardial infarction (MI) size was calculated as a percentage of the infarct area to the total area of the left ventricle of male chinchilla rabbits; format: functional, Heart left ventricle; set-up: concentration or dose not given beside the values

SMILES	LD50 [1]	Activity (Oryctolagus cuniculus)
Cc1c(O)c(O)c2c(c1O)C(=O)C(SC[C@H](NC(=O)CC[C@H](N)C(=O)O)C(=O)NCC(=O)O)=C(SC[C@H](NC(=O)CC[C@H](N)C(=O)O)C(=O)NCC(=O)O)C2=O	1350 mg/kg	7.15%
CC(C)(C)C1=CC(=O)c2c(O)c(O)c(O)c(O)c2C1=O	170 mg/kg	10.18%
CCCC1=C(O)C(=O)c2c(O)c(O)c(O)c(O)c2C1=O	80 mg/kg	10.08%
Cc1c(O)c(O)c2c(c1O)C(=O)C(SCCO)=C(SCCO)C2=O	150 mg/kg	9.97%
O=C(O)CCC1=C(O)C(=O)c2c(O)c(O)c(O)c(O)c2C1=O	95 mg/kg	7.9%
CCc1c(O)c(O)c2c(c1O)C(=O)C(SC[C@H](NC(=O)CC[C@H](N)C(=O)O)C(=O)NCC(=O)O)=C(SC[C@H](NC(=O)CC[C@H](N)C(=O)O)C(=O)NCC(=O)O)C2=O	1480 mg/kg	8.35%
N[C@@H](CCC(=O)N[C@@H](CSC1=C(SC[C@H](NC(=O)CC[C@H](N)C(=O)O)C(=O)NCC(=O)O)C(=O)c2c(O)c(O)c(O)c(O)c2C1=O)C(=O)NCC(=O)O)C(=O)O	1210 mg/kg	12.37%
CCC1=C(O)C(=O)c2c(O)c(O)c(O)c(O)c2C1=O [ECHINOCHROME A]	87 mg/kg	7.76%
O=[N+]([O-])OCC(CO[N+](=O)[O-])O[N+](=O)[O-] [NITROGLYCERIN]		15.23%
COc1ccc(CCN(C)CCCC(C#N)(c2ccc(OC)c(OC)c2)C(C)C)cc1OC (stereo not drawn) [VERAPAMIL]		6.51%
